Experimental data reported in US7807368B2, “Cyclin-dependent kinase inhibitors as targets for opiod growth factor treatment” (priority 2006, dated 2010).

What was measured:
Format in all cases: cell-based, human
[1] = test system: p16; test: Western blot of p16, other CKIs and Cdk4 in SCC-1 cells; conditions: for p16 expression: synchronized SCC-1 cells, 3 h, 10^-6 M OGF, 10^-5 M naloxone
Experimental: Synchronized cells (˜2×10^6) from each treatment were solubilized in 200 μl RIPA buffer (1×PBS, 10 μM IGEPAL, 1 mg/ml SDS, 5 mg/ml deoxycholic acid), containing protease and phosphatase inhibitors (2 μg/ml aprotinin, 3 mg/ml phenylmethyl sulfonyl fluoride (PMSF), 1 mM sodium orthovanidate, 1 μM okadaic acid). Total protein concentrations were measured using the DC protein assay kit (Bio-Rad Laboratories, Hercules, Calif.). Equal amounts of protein (40 μg) were subjected to 10% SDS-PAGE followed by transfer of proteins onto polyvinylidene difluoride (Millipore, Billerica, Mass.) using standard protocols. The following antibodies were purchased from commercial sources: phospho-Rb (Ser795), phospho-Rb (Ser807/811) (Cell Signaling Technology, Beverly, Mass.); phospho-Rb (Thr821) (Biosource, Camarillo, Calif.); Cdk4, cyclin D1, p15, p16, p18, p19 (Santa Cruz Biotechnology, Santa Cruz, Calif.); total Rb, p21, p27 (BD PharMingen, San Diego, Calif.); β-actin (Clone AC-15, Sigma). The following dilutions of primary antibodies were used to detect respective proteins. 1:200 phospho-Rb (Ser795), 1:200 phospho-Rb (Ser807/811); 1:200 phospho-Rb (Thr821); 1:200 Cdk4, 1:200 cyclin D1, 1:100 p16; 1:200 total Rb, 1:200 p21, 1:100 p27. Membranes were probed with secondary anti-rabbit or anti-mouse horseradish peroxidase-conjugated antibodies (GE Healthcare-Amersham Biosciences, Piscataway, N.J.); blots were developed using a chemiluminescence Western blotting detection system (GE Healthcare-Amersham Biosciences).
To determine equal loading of total protein samples, blots were reprobed with monoclonal antibody against β-actin at a dilution of 1:2000. If necessary, membranes were stripped in stripping buffer (62.5 mM Tris-HCl and 100 mM β-mercaptoethanol/2% SDS, pH 6.7) at 50° C. before being re-probed. Means and SE were determined from 3 or more independent experiments.
(§1) To quantify expression levels or kinase activity, the optical density of each band was determined by densitometry and analyzed by QuickOne (Bio-Rad Laboratories). Each value was normalized to β-actin from the same blot. To report the changes due to OGF treatment, the fold increase was calculated by dividing the normalized value from the OGF treated samples by the normalized value of control samples at each time point; thus, increases due to OGF have values greater than one, and decreases due to OGF have values less than one.
(§2) The p16-targeted siRNAs (antisense:5′ […]-3′; sense (SEQ ID NO:5): 5′ […]-3′(SEQ ID NO:6) were obtained as ready-annealed, purified duplex probes (Invitrogen, Carlsbad, Calif.). For transfection, 2×10^5 cells per well were seeded in 6-well plates containing 1 ml of serum-free media without antibiotics. In each well, 20 nM of p16-siRNA or control siRNA solutions in serum-free media were added. Cells were incubated for 4 h at 37° C. prior to the addition of OGF. Cultures were incubated for additional 20 h, and then 1 ml fresh complete media either lacking or containing OGF was added. At the indicated time points, cells were collected for growth curves or Western blotting. Three or more independent experiments were conducted. The control siRNAs were purchased from Ambion.

[2] = test system: SCC-1 cells; test: Growth of SCC-1 cells transfected with p16 siRNA or negative control siRNA; conditions: SCC-1 cells transfected with p16 siRNA, exposed to OGF for 96 h
Experimental: as §2

[3] = test system: p16; test: Western blot of p16 in CAL-27 cells; conditions: CAL-27 cells transfected with p16 siRNA
Experimental: (§3) The SCC-1 (UM-SCC-1) cell line was obtained from the University of Michigan Cancer Research Laboratory, and CAL-27 and SCC-4 cells were obtained from the American Type Culture Collection (Manassas, Va.). SCC-1 and CAL-27 cells were cultured in DMEM media, whereas SCC-4 cells were grown in 1:1 Hams F-12 DMEM media. All media was supplemented with 10% fetal bovine serum (HyClone, Logan, Utah), 1.2% sodium bicarbonate, and 5000 units/ml penicillin, 5 μg/ml streptomycin and 10 μg/ml neomycin. OGF was purchased from Sigma-Aldrich (St. Louis, Mo.), dissolved in sterile water, and used at a final concentration of 10^−6 M.
(§4) Synchronized cells (˜2×10^6) from each treatment were solubilized in 200 μl RIPA buffer (1×PBS, 10 μM IGEPAL, 1 mg/ml SDS, 5 mg/ml deoxycholic acid), containing protease and phosphatase inhibitors (2 μg/ml aprotinin, 3 mg/ml phenylmethyl sulfonyl fluoride (PMSF), 1 mM sodium orthovanidate, 1 μM okadaic acid). Total protein concentrations were measured using the DC protein assay kit (Bio-Rad Laboratories, Hercules, Calif.). Equal amounts of protein (40 μg) were subjected to 10% SDS-PAGE followed by transfer of proteins onto polyvinylidene difluoride (Millipore, Billerica, Mass.) using standard protocols. […]

[4] = test system: p16; test: Western blot of p16 in SCC-4 cells; conditions: SCC-4 cells transfected with p16 siRNAs, 72 h
Experimental: as §3, §4

[5] = test system: SCC-1 cells; test: siRNA knockdown of OGFr, growth of SCC-1 cells
Experimental: siRNA knockdown of OGFr. […] For transfection, 5×10^4 cells per well were seeded in 6-well plates containing 1 ml of serum-containing media without antibiotics. In each well, 20 nM OGFr-siRNA or control siRNA solutions in serum-free media were added. Cells were incubated for 4 h at 37° C. prior to the addition of OGF. Cultures were incubated an additional 20 h, and then 1 ml fresh complete media either lacking or containing OGF was added. […] Two independent experiments were conducted. The control siRNAs were purchased from Ambion.

[6] = test system: p21; test: Western blot of p21, p27 and Cdk2 in BxPC-3 cells; conditions: synchronized BxPC-3 cells, 9 hours, 10^-6 M OGF, 10^-5 M naloxone
Experimental: Synchronized cells (2×10^6) from each treatment were solubilized in 200 μl RIPA buffer (1×PBS, 10 μM IGEPAL, 1 mg/ml SDS, 5 mg/ml deoxycholic acid), containing protease and phosphatase inhibitors (2 μg/ml aprotinin, 3 mg/ml phenylmethyl sulfonyl fluoride, 1 mM sodium orthovanidate, 1 μM okadaic acid). Total protein concentrations were measured using the DC protein assay kit (Bio-Rad Laboratories, Hercules, Calif.). Equal amounts of protein (40 μg) were subjected to 10% SDS-PAGE followed by transfer of proteins onto polyvinylidene difluoride (Millipore, Billerica, Mass.) using standard protocols.
The following antibodies were purchased from commercial sources: phospho-Rb (Ser795), phospho-Rb (Ser807/811) (Cell Signaling Technology, Beverly, Mass.); Cdk2, p57 (Santa Cruz Biotechnology, Santa Cruz, Calif.); p21, p27, total Rb (BD PharMingen, San Diego, Calif.); β-actin (Clone AC-15, Sigma-Aldrich).
Membranes were probed with secondary anti-rabbit or anti-mouse horseradish peroxidase-conjugated antibodies (GE Healthcare-Amersham Biosciences, Piscataway, N.J.), and developed using a chemiluminescence Western blotting detection system.
To determine equal loading of total protein samples, blots were re-probed with monoclonal antibody against β-actin at a dilution of 1:2000. If necessary, membranes were processed in stripping buffer (62.5 mM Tris-HCI and 100 mM β-mercaptoethanol/2% SDS, pH 6.7) at 50° C. before being re-probed.
as §1, with “treatment, we calculated” for “treatment,”, “increase” for “increase was calculated”, “one. For all Western blot analyses, 3 or more independent experiments were performed.” for “one.”
The p21-targeted siRNAs were obtained from Santa Cruz Biotechnology, and negative control siRNAs were purchased from Ambion (Ambion, Inc., Austin, Tex.). For transfection, 2×10^5 cells per well were seeded in 6-well plates containing 1 ml of media without antibiotics. For each well, 1 μl of siRNA stock (20 μM) was mixed with 175 μl of serum-free media. Two μl of Oligofectamine reagent (Invitrogen, Carlsbad, Calif.) was added to prewashed cells in each well, making the final concentration for siRNA approximately 20 nM. Cells were incubated for 4 hours at 37° C. prior to the addition of OGF. Eighteen hours later, 1 ml fresh complete media with or without OGF was added to the cultures; media and OGF were replaced daily. At the indicated time points, cells were collected for growth curves or Western blotting.

Q: How did the “p16 protein level compared to untransfected cells” value ([1]; SCC-1 cells transfected with p16 siRNA, after 72 h) turn out when “p16 siRNA: p16-targeted siRNA duplex (SEQ ID NO:5 and 6) from Invitrogen (chain 1 ACACCGCUUCUGCCUUUUCUU; chain 2 GAAAAGGCAGAAGCGGUGUUU; chemistry not given here)” was run?
A: significantly reduced levels

Q: What about the “effect of p16 knockdown on OGF growth inhibition” value [2] of the same compound?
A: blocked OGF inhibitory action

Q: And the “p16 levels relative to control cells” value [3]?
A: significantly reduced p16 levels

Q: And the “p16 protein level compared to control cells” value [4]?
A: significantly reduced levels

Q: With “OGFr-siRNA: OGFr-targeted siRNA duplex (SEQ ID NO:3 and 4) from Ambion (chain 1 UAGAAACUCAGGUUUGGCG; chain 2 CGCCAAACCUGAGUUUCUA; listed as RNA, chemistry not given here)” as the compound, how does the “more cells than wt and control siRNA-treated cultures” value ([5]; 20 nM siRNA, 96 h) read?
A: approximately 19%

Q: What does the source list for `O=C1CC[C@@]2(O)[C@H]3Cc4ccc(O)c5c4[C@@]2(CCN3CC2CC2)[C@H]1O5` [NTX]?
A: effect on growth of OGFr-siRNA cultures ([5]; SCC-1 cells subjected to OGFr-siRNA, 10^-6 M): no further effects; increase in number of cells ([5]; control siRNA-exposed SCC-1 cells, 10^-6 M, 96 h): 27%; increase in number of cells ([5]; wt SCC-1 cells, 10^-6 M, 96 h): 24%

Q: How did the p16 expression [1] turn out when `C=CCN1CC[C@]23c4c5ccc(O)c4O[C@H]2C(=O)CC[C@@]3(O)[C@H]1C5` [naloxone] was run?
A: no effect

Q: And the p16 expression ([1]; listed as NAL)?
A: no change

Q: What about the p21 expression [6] of the same compound?
A: no effect

Q: What about the p21 expression ([6]; listed as NAL) of the same compound?
A: no change
